Where two headings read alike, the source gives them in different places.
Key:
Assay type in all cases: cell-based
[1] = test system: A2058 human melanoma cells; experiment: MTS cell viability assay in A2058 melanoma cells
Protocol: (§1) Then, MTS assays for cell viability were carried out to determine the IC50 values. Four samples were tested for each isatin derivative at each concentration in each cell line, and the averaged data were shown in Table 2a and FIGS. 1˜4.
(§2) IC50 of values of isatin derivatives Compounds 101˜123 were determined in cancer cell lines DU145 and A2058 respectively.

[2] = test system: DU145 prostate cancer cells; experiment: MTS cell viability assay in DU145 prostate cancer cells
Protocol: as §1, §2

[3] = test system: A2780 cisplatin-resistant ovarian cancer cells; experiment: MTS cell viability assay in A2780 cisplatin-resistant ovarian cancer cells; conditions: Homo sapiens, A2780, 48 h, A2780 cisplatin-resistant, 48 hr, 1% DMSO, MTS
Protocol: (§3) Each type of cells (5,000 or 10,000 cells/well) were treated with different concentration (0.1 μM to 20 μM in 1% DMSO of cisplatin or Compound 2, 9, 12, 16 or 22 respectively for 48 hr). Then, MTS assays for cell viability were carried out to determine the IC50 values. Four samples were tested for each test compound at each concentration for each type of cells, and the averaged data were shown in Table 4 and FIGS. 6-8.

[4] = test system: OVCAR5 ovarian cancer cells; experiment: MTS cell viability assay in OVCAR5 ovarian cancer cells; conditions: Homo sapiens, OVCAR-5, OVCAR5, 48 hr, 1% DMSO
Protocol: as §3

[5] = Homo sapiens, A2058, 48 h, A2058, compound in water, 48 hr, MTS (Table 2b), read-out: IC50 value, Water, A2058
[6] = Homo sapiens, DU-145, 48 h, DU145, compound in water, 48 hr, MTS (Table 2b), read-out: IC50 value, Water, DU145
[7] = Homo sapiens, A2058, 48 h, 0.05 to 10 μM in 1% DMSO, MTS (Table 2a), read-out: A2058 IC50
[8] = Homo sapiens, DU-145, 48 h, DU145, 48 hr, 0.05 to 10 μM in 1% DMSO, MTS (Table 2a), read-out: DU145 IC50
[9] = A2058, compound in DMSO, 48 hr, MTS (Table 2b), read-out: IC50 value, DMSO, A2058
[10] = DU145, compound in DMSO, 48 hr, MTS (Table 2b), read-out: IC50 value, DMSO, DU145
[11] = Homo sapiens, A2058, 48 h, A2058, compound in DMSO, 48 hr, MTS (Table 2b), read-out: IC50 value, DMSO, A2058
[12] = Homo sapiens, DU-145, 48 h, DU145, compound in DMSO, 48 hr, MTS (Table 2b), read-out: IC50 value, DMSO, DU145

CCN(CCN1C(=O)C(=O)c2cc(-c3cccnc3)ccc21)c1ccccc1 [Compound 113]
IC50 [1, 5]: > 5000 nM
IC50 [2, 6]: > 5000 nM

CC(=O)OC1C(=O)N(Cc2ccccc2)c2ccc(-c3cccnc3)cc21 (stereo not shown) [Compound 14, 3-Acetoxy-N-Benzyl-5-(pyridin-3-yl)indoline-2-one]
IC50 [1, 7]: > 5000 nM
IC50 [2, 8]: > 5000 nM

O=C1C(=O)N(C/C=C/c2ccccn2)c2ccc(-c3cccnc3)cc21 [Compound 111]
IC50 [1, 9]: 580 nM
IC50 [1, 5]: 840 nM
IC50 [2, 10]: 480 nM
IC50 [2, 6]: 500 nM

O=C1C(=O)N(CCCc2ccccc2)c2ccc(-c3ccncc3)cc21 [Compound 28]
IC50 [1, 7]: 1600 nM
IC50 [2, 8]: 1300 nM

CCCc1ccc2c(c1)C(=O)C(=O)N2CCCc1ccccc1 [Compound 20]
IC50 [1, 7]: 2500 nM
IC50 [2, 8]: > 5000 nM

O=C1C(=O)N(C/C=C/c2ccccc2)c2ccc(-c3ccc(F)nc3)cc21 [Compound 29]
IC50 [1, 7]: 300 nM
IC50 [2, 8]: 330 nM

O=C1C(=O)N(Cc2cccs2)c2ccc(-c3cccnc3)cc21 [Compound 12, N-(2-Thienylmethyl)-5-(pyridin-3-yl)indoline-2,3-dione]
IC50 [1, 7]: 2000 nM
IC50 [3]: 900 nM
IC50 [4]: 2200 nM
IC50 [2, 8]: 910 nM

CN1C(=O)C(=O)c2cc(-c3cccnc3)ccc21 [Compound 7]
IC50 [1, 7]: 4200 nM
IC50 [2, 8]: 4300 nM

O=C1C(=O)N(Cc2ccccc2)c2cc(-c3ccccc3)ccc21 [Compound 1]
IC50 [1, 7]: > 10000 nM
IC50 [2, 8]: > 10000 nM

C[Si](C)(C)CCOCN1C(=O)C(=O)c2cc(I)ccc21 [Compound 6]
IC50 ([1]; Homo sapiens, A2058, 48 hr, 0.05 to 10 μM in 1% DMSO, MTS (Table 2a), read-out: A2058 IC50): 6900 nM
IC50 ([2]; Homo sapiens, DU-145, DU145, 48 hr, 0.05 to 10 μM in 1% DMSO, MTS (Table 2a), read-out: DU145 IC50): 4600 nM

O=C1C(=O)N(C/C=C/c2ccc3ccccc3n2)c2ccc(-c3cccnc3)cc21 [Compound 114]
IC50 [1, 11]: 650 nM
IC50 [2, 12]: 1000 nM

O=C1C(=O)N(CCO)c2ccc(-c3cccnc3)cc21 [Compound 10]
IC50 [1, 7]: > 5000 nM
IC50 [2, 8]: > 5000 nM

O=C1C(=O)N(CCOCCO)c2ccc(-c3cccnc3)cc21 [Compound 11]
IC50 [1, 7]: > 5000 nM
IC50 [2, 8]: > 5000 nM

O=C1C(=O)N(Cc2ccc(-c3cccnc3)cc2)c2ccc(-c3cccnc3)cc21 [Compound 122]
IC50 [1, 11]: 380 nM
IC50 [2, 12]: 580 nM

O=C1C(=O)N(CCCc2ccccc2)c2ccc(-c3ccccc3)cc21 [Compound 23]
IC50 [1, 7]: 5900 nM
IC50 [2, 8]: 4200 nM

O=C1C(=O)N(Cc2ccccc2I)c2ccc(-c3cccnc3)cc21 [Compound 117]
IC50 [1, 11]: 1900 nM
IC50 [2, 12]: 3400 nM

O=C1C(=O)N(Cc2ccc(I)cc2)c2ccc(-c3cccnc3)cc21 [Compound 121]
IC50 [1, 11]: 350 nM
IC50 [2, 12]: 500 nM

O=C1C(=O)N(C/C=C/c2ccccc2)c2ccc(-c3cncnc3)cc21 [Compound 27]
IC50 [1, 7]: 400 nM
IC50 [2, 8]: 360 nM

O=C1C(=O)N(CCCc2ccccc2)c2ccc(-c3ccco3)cc21 [Compound 25]
IC50 [1, 7]: 2000 nM
IC50 [2, 8]: 1500 nM

O=C1C(=O)N(C/C=C/c2cccnc2)c2ccc(-c3cccnc3)cc21 [Compound 108]
IC50 [1, 11]: 500 nM
IC50 [2, 12]: 450 nM

CCN(CCN1C(=O)C(=O)c2cc(-c3cccnc3)ccc21)c1ccccc1 [Compound 112]
IC50 [1, 11]: > 5000 nM
IC50 [2, 12]: > 5000 nM

O=C1C(=O)N(Cc2ccccn2)c2ccc(-c3cccnc3)cc21 [Compound 103]
IC50 [1, 11]: 4400 nM
IC50 [2, 12]: 4300 nM

O=C1C(=O)N(Cc2ccc(-c3cccnc3)cc2)c2ccc(-c3cccnc3)cc21 [Compound 123]
IC50 [1, 9]: 380 nM
IC50 [1, 5]: 800 nM
IC50 [2, 10]: 600 nM
IC50 [2, 6]: 2300 nM

O=C1C(=O)N(Cc2ccccc2)c2ccc(-c3ccccc3)cc21 [Compound 32]
IC50 [1, 7]: 1900 nM
IC50 [2, 8]: 4100 nM

O=C1C(=O)N(Cc2ccccc2)c2cc(Br)ccc21 [Compound 3, N-benzyl-6-bromoindoline-2,3-dione]
IC50 [1, 7]: 8400 nM
IC50 [2, 8]: 8500 nM

O=C1C(=O)N(C/C=C/c2ccncc2)c2ccc(-c3cccnc3)cc21 [Compound 107]
IC50 [1, 9]: 2000 nM
IC50 [1, 5]: 1600 nM
IC50 [2, 10]: 960 nM
IC50 [2, 6]: 740 nM

O=C1C(O)c2cc(-c3cccnc3)ccc2N1Cc1ccccc1 (stereo not shown) [Compound 13, N-Benzyl-3-hydroxy-5-(pyridin-3-yl)indoline-2-one]
IC50 [1, 7]: 2300 nM
IC50 [2, 8]: 2500 nM

O=C1C(=O)N(C/C=C/c2ccccn2)c2ccc(-c3cccnc3)cc21 [Compound 110]
IC50 [1, 11]: 580 nM
IC50 [2, 12]: 470 nM

O=C1C(=O)N(Cc2cccc(-c3cccnc3)c2)c2ccc(-c3cccnc3)cc21 [Compound 119]
IC50 [1, 11]: 1400 nM
IC50 [2, 12]: 2300 nM

Cc1ccc2c(c1)C(=O)C(=O)N2CCCc1ccccc1 [Compound 19]
IC50 [1, 7]: > 5000 nM
IC50 [2, 8]: > 5000 nM

O=C1C(=O)N(C/C=C/c2ccncc2)c2ccc(-c3cccnc3)cc21 [Compound 106]
IC50 [1, 11]: 1400 nM
IC50 [2, 12]: 740 nM

O=C1C(=O)N(Cc2ccccn2)c2ccc(-c3cccnc3)cc21 [Compound 102]
IC50 [1, 9]: 3700 nM
IC50 [2, 10]: 4100 nM

CO/N=C1/C(=O)N(Cc2ccccc2)c2ccc(-c3cccnc3)cc21 [Compound 34]
IC50 [1, 7]: > 5000 nM
IC50 [2, 8]: > 5000 nM

O=C1C(=O)N(Cc2ccccc2)c2cccc(Br)c21 [Compound 5]
IC50 [1, 7]: > 10000 nM
IC50 [2, 8]: > 10000 nM

O=C1Cc2cc(-c3cccnc3)ccc2N1Cc1ccccc1 [Compound 15, N-Benzyl-5-(pyridin-3-yl)indoline-2-one]
IC50 [1, 7]: > 5000 nM
IC50 [2, 8]: > 5000 nM

O=C1C(=O)N(Cc2ccccc2-c2cccnc2)c2ccc(-c3cccnc3)cc21 [Compound 118]
IC50 [1, 11]: 3300 nM
IC50 [2, 12]: > 5000 nM

O=C1C(=O)N(C/C=C/c2ccc3ccccc3n2)c2ccc(-c3cccnc3)cc21 [Compound 115]
IC50 [1, 9]: 680 nM
IC50 [1, 5]: 1900 nM
IC50 [2, 10]: 1400 nM
IC50 [2, 6]: 1900 nM

O=C1C(=O)N(CCCc2ccccc2)c2ccc(-c3ccsc3)cc21 [Compound 24]
IC50 [1, 7]: 2900 nM
IC50 [2, 8]: 2500 nM

O=C1C(=O)N(CCCc2cccnc2)c2ccc(-c3cccnc3)cc21 [Compound 104]
IC50 [1, 9]: 2100 nM
IC50 [2, 10]: 910 nM

O=C1C(=O)N(C/C=C/c2ccccc2)c2ccc(-c3cccc([N+](=O)[O-])c3)cc21 [Compound 101]
IC50 [1, 11]: 2200 nM
IC50 [2, 12]: 2100 nM

O=C1C(=O)N(Cc2cccc(-c3cccnc3)c2)c2ccc(-c3cccnc3)cc21 [Compound 120]
IC50 [1, 9]: 1200 nM
IC50 [1, 5]: 1900 nM
IC50 [2, 10]: 2300 nM
IC50 [2, 6]: 4100 nM

CC(C)c1ccc2c(c1)C(=O)C(=O)N2CCCc1ccccc1 [Compound 21]
IC50 [1, 7]: 3200 nM
IC50 [2, 8]: > 5000 nM

O=C1C(=O)N(Cc2ccccc2)c2ccc(I)cc21 [Compound 4, N-benzyl-5-iodoindoline-2,3-dione]
IC50 [1, 7]: 3800 nM
IC50 [2, 8]: 2400 nM

O=C1C(=O)N(Cc2ccsc2)c2ccc(-c3cccnc3)cc21 [Compound 16, N-(3-Thienylmethyl)-5-(pyridin-3-yl)indoline-2,3-dione]
IC50 [1, 7]: 1800 nM
IC50 [3]: 500 nM
IC50 [4]: 1700 nM
IC50 [2, 8]: 900 nM

O=C1C(=O)N(CCc2ccccc2)c2ccc(-c3cccnc3)cc21 [Compound 8]
IC50 [1, 7]: > 5000 nM
IC50 [2, 8]: 5000 nM

O=C1C(=O)N(C/C=C/c2ccccc2)c2ccc(-c3ccsc3)cc21 [Compound 30]
IC50 [1, 7]: 1400 nM
IC50 [2, 8]: 870 nM

O=C1C(=O)N(CCCc2ccccc2)c2ccc(-c3cncnc3)cc21 [Compound 26]
IC50 [1, 7]: 700 nM
IC50 [2, 8]: 530 nM

O=C1C(=O)N(C/C=C/c2cccnc2Cl)c2ccc(-c3cccnc3)cc21 [Compound 116]
IC50 [1, 11]: 390 nM
IC50 [2, 12]: 660 nM

O=C1C(=O)N(C/C=C/c2ccccc2)c2ccc(-c3cccnc3F)cc21 [Compound 31]
IC50 [1, 7]: 350 nM
IC50 [2, 8]: 260 nM

O=C1C(=O)N(CCCc2cccnc2)c2ccc(-c3cccnc3)cc21 [Compound 105]
IC50 [1, 9]: 4800 nM
IC50 [1, 5]: 4700 nM
IC50 [2, 10]: 2500 nM
IC50 [2, 6]: 4600 nM

O=C1/C(=N/O)c2cc(-c3cccnc3)ccc2N1Cc1ccccc1 [Compound 33]
IC50 [1, 7]: > 5000 nM
IC50 [2, 8]: > 5000 nM

— US9828342B2, “Isatin derivatives, pharmaceutical compositions thereof, and methods of use thereof” (CITY OF HOPE, priority 2012, dated 2017)
